Data taken from patent US20140322315A1, “CYSTEAMINE AND/OR CYSTAMINE FOR TREATING ISCHEMIC INJURY” (The Regents of the University of California, priority 2011, published 2014).
“Also recorded” adds a separate entry of the source.

Columns and labels:
adiponectin multimers [1] = target: T1, adiponectin multimers (Homo sapiens, UniProt Q15848); assay: Lean control / healthy subjects' serum incubated 1 hour with 90 μM cysteamine, adiponectin multimers; assay type: biochemical
T1 construct: from tissue; host or cells: human serum (pretreatment NAFLD subjects; adults without NAFLD)
T1 sequence (Q15848 19-244): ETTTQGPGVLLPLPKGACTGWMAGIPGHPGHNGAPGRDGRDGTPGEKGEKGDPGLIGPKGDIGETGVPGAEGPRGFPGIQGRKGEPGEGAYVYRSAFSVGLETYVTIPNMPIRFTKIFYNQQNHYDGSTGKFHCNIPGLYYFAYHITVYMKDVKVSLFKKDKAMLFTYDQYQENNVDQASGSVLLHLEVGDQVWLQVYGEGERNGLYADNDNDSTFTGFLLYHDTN
Protocol: (§1) Total and multimeric adiponectin levels were measured in serum taken from: (1) subject with NAFLD collected at 0 and 24 wks of cysteamine therapy and again 16 wks after stopping therapy (i.e., 40 weeks); (2) pretreated 0-week subjects with NAFLD and adults without NAFLD at room temperature and at 37° C. and also after incubation with cysteamine 90 μM for 1 hour at 37° C.; and (3) pretreated 0-week subjects with NAFLD before and after incubation with cysteamine at varying concentrations (15, 30, 45, 60, 90, 120 μM) for 1 hour at 37° C. to establish dose-response profile.
(§2) Sodium dodecyl sulfate polyacrylamide gel electrophoresis (SDS-PAGE) was performed according to standard Laemmli's method. Sample buffer for non-reducing, non-heat denaturing conditions contained 3% SDS; 50 mmol/1 Tris-HCL, pH 6.8 and 20% glycerol. Proteins were separated using 3-8% Tris-Acetate Gels (Invitrogen, Carlsbad Calif.) with Tris-Acetate running buffer per manufacturer instructions. For immunoblotting, proteins were transferred to nitrocellulose membranes. Membranes were washed with Tween (Tris-buffered Saline, 0.1% […]) and incubated with monoclonal antibody (1:500 BD Transduction Laboratories, San Diego, Calif.). After washing with Tris-buffered saline with 0.1% Tween (4×5 min) membranes were incubated with L-COR secondary antibodies (LI-COR Biotechnology, Lincoln Nebr.) at 1:20,000. Adiponectin multimers were detected and quantified using the LICOR imager and software analysis program. Relative distribution of adiponectin multimers was determined by dividing band density by total density (cellular adiponectin) or by total adiponectin as determined by ELISA (Millipore, Billerica, Mass.). The percentage of adionectin multimer was then multiplied by the total adiponectin level to calculate absolute oligomer value.
In another experiment, 25 μl total sample volume (5 μl diluted serum+15 μl water+5 μl 5×LB) was incubated with or without cysteamine at 37° C.×1 hr. A control was prepared without cysteamine and incubated at room temperature for 1 hour on the bench. The preparations were then run on 2×15-well 1.5 mm 3-8% Tris-acetate gels. Primary antibody—mouse anti-adiponectin 1:500, overnight at 4° C. and secondary antibody—goat anti-mouse IR800 1:20,000.

adiponectin [2] = assay: Adiponectin secretion by adipose tissue explants / isolated fat cells cultured with cysteamine; assay type: cell-based; settings: 90 μM cysteamine, 45 min; p=0.002
Protocol: Fat biopsy adipose tissue (AT) samples were collagenase digested×1 hr at 37° C. in a rotating waterbath. Digested AT was then filtered through 425 μm nylon mesh to separate fat cells. Isolated fat cells (FC) were twice washed in physiologic salts buffer (Phillips 2008), filtered and twice washed again. FC were spun at 50×g to concentrate. 1 ml FC were resuspended in 9 ml of defined culture media (Phillips 2008) and FC were allowed to recover×10 hrs overnight at 37° C.
Adipocytes were isolated and allowed to recover×overnight then cultured with or without 90 μM cysteamine and media collected at the following time points (45, 90, 180, 24 hr). Western Blot analysis of 20 μl of media was performed with non-reducing 5× Loading buffer. […] The blot was washed and incubated with a secondary antibody (Goat anti-mouse IR 800) and densitometry measured on a LICOR densitometer. […]
To determine the time course of cysteamine effects on adiponectin, media was changed and FC were resuspended in 9 ml of defined media ±90 μM cysteamine. FC content and secretion of adiponectin into the media was assessed in duplicate culture at 0, 45, 90, 180 minutes and 24 hr. […] Signal detection and quantitative analysis was completed using the LiCOR Odyssey Machine (LiCOR, Lincoln, Nebr.). Multimeric content of cellular adiponectin was determined by dividing the AU for the multimer by the total AU per sample. […]

adiponectin [3] = assay: Serum total and multimeric adiponectin in subjects with NAFLD treated 24 weeks with EC-cysteamine; assay type: in vivo, human
Source text: (§3) Eleven children ≧10 years, with biopsy-proven NAFLD and an alanine aminotransferase (ALT) level ≧60 IU/L, were enrolled. They were either newly diagnosed or had not received specific therapy for NAFLD such as vitamin E or insulin-sensitizing drugs for at least 3 months before entering the study. All had undertaken standard of care lifestyle changes involving diet and exercise for more than 3 months. The study's primary outcome measure was normalization (≦40 IU/L) or 50% reduction in baseline serum ALT at 24 weeks of EC-cysteamine therapy; these subjects were deemed responders.
(§4) Subjects were treated for 24 wks and remained monitored for 24 weeks following its discontinuation. The mean EC-cysteamine dose ingested was 654 mg twice daily or 15.2 mg/kg/day (median dose 900 mg) for 24 wks.
(§5) During the pilot study blood was collected at pre-defined intervals. Serum was stored at −80° C. until time of assay. Adequate serum volumes were available in 10 of the 11 subjects with NAFLD and only up to 16 weeks post-treatment.
as §1, §2

subjects with NAFLD = assay: Pilot study of EC-cysteamine in children with NAFLD: ALT, AST, BMI, leptin, responders; assay type: in vivo, human; settings: for mean AST / mean ALT: all study subjects; for mean AST: baseline 60.9 IU/L; for mean ALT: baseline 123 IU/L; for mean leptin level: responders, baseline 21.3 ng/mL
Source text: as §3, §4, §5

adiponectin multimers [4] = target: T1, adiponectin multimers; assay: Pretreatment serum of subjects with NAFLD incubated 1 hour with cysteamine, adiponectin multimers; assay type: biochemical
Protocol: as §1, §2

[5] = lean control serum, 37° C. + 90 μM cysteamine, 1 hr
[6] = NAFLD serum (n=10), cysteamine 1 hour at 37° C. (45 μM in FIG. 13), P<0.0001

SMILES: NCCS [cysteamine, Cysteamine]
- mean percentage of total adiponectin comprised of LMW after incubation (adiponectin multimers [1]; healthy subjects, 90 μM cysteamine 1 hour, before 11.1%): 18.0%
- mean percentage of total adiponectin comprised of HMW after incubation (adiponectin multimers [1]; healthy subjects, 90 μM cysteamine 1 hour, before 42.9%): 42.7%
- mean percentage of total adiponectin comprised of MMW after incubation (adiponectin multimers [1]; healthy subjects, 90 μM cysteamine 1 hour, before 46.0%): 39.3%
- LMW adiponectin absolute level change (adiponectin multimers [1]; [5]): no significant change
- MMW adiponectin absolute level change (adiponectin multimers [1]; [5]): significant decrease
- LMW adiponectin mean percent change vs baseline (adiponectin multimers [1]; lean control/healthy serum, 90 μM cysteamine, 1 hr, P<0.005): increase; also recorded: significant percent change
- MMW adiponectin mean percent change vs baseline (adiponectin multimers [1]; lean control/healthy serum, 90 μM cysteamine, 1 hr, P<0.01): reduction; also recorded: significant percent change
- HMW adiponectin level change (adiponectin multimers [1]; lean control/healthy serum, 37° C. + 90 μM cysteamine, 1 hr): unchanged; also recorded: no significant change
- total adiponectin, treated vs untreated (adiponectin [2]): Significant difference
- all sub-forms (multimer forms) of adiponectin, change from baseline (adiponectin [3]; 24 weeks of oral EC-cysteamine): increased
- total adiponectin, baseline vs 40 wks (adiponectin [3]; 40 weeks (therapy stopped at 24 weeks)): No significant difference
- relative proportion of HMW in total adiponectin (adiponectin [3]; after 24 weeks cysteamine therapy, baseline 12.2%, P=0.02): increased significantly
- relative proportion of LMW in total adiponectin (adiponectin [3]; after 24 weeks cysteamine therapy, baseline 14.1%): remained unchanged
- relative proportion of MMW in total adiponectin (adiponectin [3]; after 24 weeks cysteamine therapy, baseline 73.7%, P=0.03): decreased
- total adiponectin change between 24-week and 40-week timepoints (adiponectin [3]; after discontinuing therapy at 24 weeks, P=0.01): significant decrease
- mean percent increase of total adiponectin from baseline (adiponectin [3]; all subjects, 0-24 weeks oral EC-cysteamine, P=0.05): significantly increased
- responders (ALT normalization ≦40 IU/L or 50% reduction at 24 weeks) (subjects with NAFLD; 24 weeks EC-cysteamine therapy, subjects with serum analyzed): Seven of the 10
- mean AST (subjects with NAFLD; 24 weeks of treatment, P=0.001): 32 IU/L
- mean ALT (subjects with NAFLD; 24 weeks of treatment, P=0.003): 55 IU/L
- mean AST (subjects with NAFLD; 40 weeks (16 weeks off therapy), P=0.012): 35 IU/L
- mean ALT (subjects with NAFLD; 40 weeks (16 weeks off therapy), P=0.055): 71 IU/L
- mean leptin level (subjects with NAFLD; 24 weeks, P=0.04): 15.7 ng/mL
- mean leptin level (subjects with NAFLD; 40 weeks): 19.5 ng/mL
- HMW adiponectin level change (adiponectin multimers [4]; NAFLD pretreatment serum, cysteamine 1 hour at 37° C.): unchanged
- LMW adiponectin mean percent change vs pretreatment (adiponectin multimers [4]; [6]): increase
- MMW adiponectin mean percent change vs pretreatment (adiponectin multimers [4]; [6]): significant reduction
- mean percentage of total adiponectin comprised of HMW after incubation (adiponectin multimers [4]; NAFLD serum, cysteamine 1 hour at 37° C., before 8.2%): 8.6%
- mean percentage of total adiponectin comprised of LMW after incubation (adiponectin multimers [4]; NAFLD serum, cysteamine 1 hour at 37° C., before 28.5%): 36.7%
- mean percentage of total adiponectin comprised of MMW after incubation (adiponectin multimers [4]; NAFLD serum, cysteamine 1 hour at 37° C., before 63.3%): 54.7%
